Test results from patent publication US20110256241A1, “METHODS AND COMPOSITIONS FOR THE TREATMENT OF CANCER” (TRASLATIONAL CANCER DRUGS PHARMA, S.L., priority 2008, published 2011).

Legend:
Type in all cases: cell-based, human
[1] = system: H1299 cells; experiment: Cell proliferation assay (MTT)
Protocol: (§1) All cell lines used in this study were maintained under standard conditions of temperature (37° C.), humidity (95%), and carbon dioxide (5%). Human primary bronchial epithelial cells, NHBE (BEC) (Cambrex, CC-2541) were grown in BEGM (Bronchial Epithelial cell growth media) BulletKit (Cambrex, CC-3170). Human primary mammary epithelial cells, HMEC (Clonetics, CC-2551) were grown in MEBM medium supplemented with a bullet kit (Clonetics, CC-3150). Epithelial non-small lung cancer cells H460 and H1299, and small cell lung cancer cell lines H510 and H82 were maintained in RPMI supplemented with 10% Fetal Bovine Serum (FBS) (Life Technologies, Grand Island, N.Y.).
(§2) Cells were seeded on 96-well plates (BD, Falcon, Bioscience, San Jose, Calif., USA) at a density of 6000 cells/well, and incubated for 24 h under standard conditions. […] Absorbance is read at 595 nm in a VersaMax Microplate Reader (Molecular Devices, Sunnyvale, Calif., USA). For sensitization with acid ceramidase inhibitor, cells were pre-treated 4 hours with the correspondent IC50 for NOE before treatment with ChoK inhibitors. NOE (N-Oleoyl ethanolamine) was obtained from Calbiochem (La Jolla, Calif., USA).

[2] = system: H510 cells; experiment: Cell proliferation assay (MTT)
Protocol: as §1, §2

[3] = system: H82 cells; experiment: Cell proliferation assay (MTT)
Protocol: as §1, §2

[4] = system: DLD-1 cells; experiment: Apoptosis detection by flow cytometry, Annexin V & IP; conditions: DLD-1, 7 hours treatment
Protocol: Cell death was analysed by flow cytometry using de Aposcreen Annexin V Apoptosis Kit (Southern Biotech) according to manufacturer procedures. Cells were seeded at 4×10^5 cells per well in six-well. Twenty-four hours later, cells were treated with the indicated compounds. Cells were rinsed twice in cold PBS and after removing it cells were resuspended in cold 1× binding buffer to a concentration from 1×10^6 to 1×10^7 cells/mL. 100 μl of these cells were collected in a flow cytometry tube and 10 μl of Annexin V were added. After gently vortexing, tubes were incubated for 15 minutes on ice, protected from light. Without washing, 380 μl of 1× binding buffer were added to each sample prior to 10 μl of propidium iodine. Cells were immediately analysed by flow cytometry.
The synergism observed in vitro was also analysed by flow cytometry using Annexin V & IP staining to distinguish between apoptosis and necrosis or late apoptosis. […] When DLD-1 cells are treated with TRAIL alone there is a 35% of apoptosis. In combination tumour cell death is amplified up to 50%. When DLD-1 are treated with RSM-932A (TCD-717) in combination with TRAIL there is a 55% increase in tumour cell death but mainly the necrotic or late apoptosis population because RSM-932A (TCD-717) has an effect that is faster than MN58. […]

[5] = system: DR5 (TNFRSF10B or TRAIL-R2) in DLD-1 cell line; experiment: DR5 levels by quantitative PCR
Protocol: (§3) 1 μg of RNA was used to generate cDNA using High-Capacity cDNA Archive Kit (Applied Biosystems), and quantitative real-time PCR was carried out in triplicate using the ABI PRISM 7700 Sequence Detector (Applied Biosystems). GAPDH and 18S ribosomal mRNA were amplified as internal controls. Probes used for amplification were from Applied Biosystems as Taqman Gene Expression Assays (ASAH1: HS00602774—M1 Taqman Probe, ASAH2: HS00184096_M1 Taqman Probe and ASAH3: HS00370322_M1 Taqman Probe, DUT: HS00798995_S1 Taqman Probe, TYMS: HS00426591_M1 Taqman Probe, UPP1: HS00427695—M1 Taqman Probe, RRM2: HS00357247_G1 Taqman Probe). The 2-^ΔΔCt method was used (Livak K J., Methods. 2001; 25:402-8) to calculate the relative expression of each gene.
(§4) TRAIL is a member of the tumour necrosis factor (TNF) superfamily and can induce apoptosis by the extrinsic pathway associated via stimulation of death receptors DR4 (TNFRSF10A or TRAIL-R1) and DR5 (TNFRSF10B or TRAIL-R2). In order to determine the mechanism of the effectivity of the combined therapy of TRAIL and ChoK inhibitors, DR5 and DR4 levels were analysed by quantitative PCR in DLD-1 and SW620 cell lines after treatments with MN58b, TRAIL or their simultaneous combination.

[6] = system: DR5 (TNFRSF10B or TRAIL-R2) in SW620 cell line; experiment: DR5 levels by quantitative PCR
Protocol: as §3, §4

[7] = system: DLD-1 colon cancer cells; experiment: QT-PCR validation of 5-FU metabolization pathway genes; set-up: key: DR (Down-regulation); UR (Up-regulation)
Protocol: as §3

[8] = system: HT29 colon cancer cells; experiment: as above; set-up: key: DR (Down-regulation); UR (Up-regulation)
Protocol: as §3

[9] = system: SW62 colon cancer cells; experiment: as above; set-up: key: DR (Down-regulation); UR (Up-regulation)
Protocol: as §3

CN(C)c1cc[n+](Cc2ccc(CCCCc3ccc(C[n+]4ccc(N(C)C)cc4)cc3)cc2)cc1 [MN58b, 1,4-(4-4′-Bis-((4-(dimethylamine)pyridinium-1-yl)methyl)diphenyl)butane dibromide]
figure in parentheses after IC50 48 h (not defined; fold vs primary cells) [1]: 4 | figure in parentheses after IC50 72 h (not defined; fold vs primary cells) [1]: 8 | figure in parentheses after IC50 144 h (not defined; fold vs primary cells) [1]: 4 | figure in parentheses after IC50 48 h (not defined; fold vs primary cells) [2]: 41 | figure in parentheses after IC50 72 h (not defined; fold vs primary cells) [2]: 53 | figure in parentheses after IC50 144 h (not defined; fold vs primary cells) [2]: 27 | figure in parentheses after IC50 48 h (not defined; fold vs primary cells) [3]: 24 | figure in parentheses after IC50 72 h (not defined; fold vs primary cells) [3]: 27 | figure in parentheses after IC50 144 h (not defined; fold vs primary cells) [3]: 12 | apoptosis [4]: only a little increase in apoptosis | increase in DR5 levels [5]: 1.6 fold | increase in DR5 levels [6]: 2 fold | TYM expression [7]: DR | UPP expression [7]: UR | DUT expression [8]: DR | RRM expression [8]: DR | TYM expression [8]: DR | RRM expression [9]: DR | TYM expression [9]: DR | UPP expression [9]: UR
